Results reported in ChEMBL document CHEMBL1151645, “Constituents of Solanum dasyphyllum Fruit” (J Nat Prod, 1985).
Activity calls are given as the source filed them. No cut-off for these calls is given here.

Species on record: Mus musculus
Assay: Anticonvulsant activity in mouse
Type: functional, organism-based

SMILES | Activity
C[C@@H]1CC[C@@]2(NC1)O[C@H]1C[C@H]3[C@@H]4CC=C5C[C@@H](O[C@@H]6O[C@H](CO)[C@H](O)[C@H](O[C@@H]7O[C@H](CO)[C@@H](O)[C@H](O)[C@H]7O)[C@H]6O[C@@H]6O[C@@H](C)[C@H](O)[C@@H](O)[C@H]6O)CC[C@]5(C)[C@H]4CC[C@]3(C)[C@H]1[C@@H]2C | inactive
C[C@@H]1CC[C@@]2(NC1)O[C@H]1C[C@H]3[C@@H]4CC=C5C[C@@H](O[C@@H]6O[C@H](CO)[C@@H](O[C@@H]7O[C@@H](C)[C@H](O)[C@@H](O)[C@H]7O)[C@H](O)[C@H]6O[C@@H]6O[C@@H](C)[C@H](O)[C@@H](O)[C@H]6O)CC[C@]5(C)[C@H]4CC[C@]3(C)[C@H]1[C@@H]2C | inactive
